Experimental data reported in publication PMC2996728 (Archives of biochemistry and biophysics, 2009).

Molecular target: T1, Microsomal glutathione transferase 1 (MGST1) (Rattus norvegicus, UniProt P08011)
T1 sequence (P08011 2-155): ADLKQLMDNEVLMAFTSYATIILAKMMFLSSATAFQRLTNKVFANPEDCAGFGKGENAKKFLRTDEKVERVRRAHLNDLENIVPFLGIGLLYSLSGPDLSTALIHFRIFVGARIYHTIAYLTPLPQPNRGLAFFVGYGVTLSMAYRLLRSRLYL
Assay: equilibrium dialysis
Format: binding

N[C@@H](CCC(=O)N[C@@H](CSc1ccc([N+](=O)[O-])cc1[N+](=O)[O-])C(=O)NCC(=O)O)C(=O)O [GSDNB, 1-S-glutathionyl-2,4-dinitrobenzene]
Kd: 320 ± 50 µM
